# PubChem BioAssay AID602279 (Broad Institute, 2012)
# The source made the active and inactive calls.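 The calls were made as follows: active = fitted curve reaches 40% growth rescue activation at or below the top valid tested concentration; inconclusive = flat fit between 30 and 70%, or poor fit quality; inactive = activity opposite to the expected rise, and the rest.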
# How the values were obtained:
# [1] = test system: S. cerevisiae alpha-synuclein toxicity rescue, OD600 growth, 24 h; experiment: activators protecting yeast from synuclein toxicity – S. cerevisiae, OD600, dry powder, dose response (AID 602279)
# [2] = as above; conditions: S. cerevisiae alpha-synuclein toxicity rescue, OD600 growth, 24 h; at 26 µM (top of the series)
SMILES,AC40 [1],growth rescue activation [2]
Cc1ccccc1CSc1nsc(N)n1,> 26 µM (inactive),
Fc1cc(NCc2ccccc2)nc(NCc2ccccc2)n1,> 26 µM (inactive),
CC(C)c1ccc(C2NC(=O)c3ccccc3O2)cc1 (centres undefined),> 26 µM (inactive),
O=c1c2ccccc2[nH]c(=S)n1CCC1=CCCCC1,,18.9% (inactive)
